From patent US5164411A, “Pyrethroid compositions” (priority 1991, dated 1992) come the findings set out here.

For data set [1], the system named is mammals and certain species of fish. The experiment in a line: Mammalian toxicology and fish toxicity, summary of the tests. The settings on record: at rates giving commercial control of target crop insects. The class given is in vivo, rat; fish. The protocol: In the 90-day feeding study, conducted in compliance with EPA guideline 82-1, the compound under test was administered continuously in the diet to groups of rats for at least ninety days at concentrations of 0, 150, and 1500 ppm to groups of fifteen Sprague-Dawley rats for cypermethrin and 0, 10, 50, 150, 250, 500, and 900 ppm to groups of ten Fisher 344 rats for sigma-cypermethrin. (The rates for sigma-cypermethrin were lower, because it was expected to be more toxic than cypermethrin.) The cypermethrin isomer content (weight %) of the sigma-cypermethrin technical product used in this study was total isomers--88.2%, S-isomers--82%, cis/trans ratio--53/47. Individual body weight and food consumption values were recorded weekly. At termination, hematology and clinical chemistry determinations were conducted and organ weights were obtained for adrenals, brain, heart, kidneys, liver, and ovaries or testes. […]
Multigeneration studies were conducted in compliance with EPA guideline 83-4 and provide information on reproductive parameters as well as neonatal morbidity and mortality for multiple generations. […] Body weights and food consumption were recorded at regular intervals. […]

Data set [2] concerns tobacco budworm (Heliothis virescens). The data set can be described thus: Foliar evaluation, tobacco budworm (TBW). The conditions noted are these: for LC50: Heliothis virescens, foliar, pinto beans, mortality at 48 hours. Type of data set: in vivo. The protocol: (§1) Cypermethrin and sigma-cypermethrin were tested by foliar application at various concentrations in aqueous solutions containing 9.75% acetone and 0.25% octylphenoxypolyethoxyethanol. Insect species utilized included the cabbage looper (Trichoplusia ni), southern armyworm (Spodoptera eridania), Mexican bean beetle (Epilachna varivestis), tobacco budworm (Heliothis virescens), and corn earworm (Heliothis zea).
(§2) For all insects, pinto beans (Phaseolus vulgaris) plants were treated with the test solutions. The test solutions were applied with a sprayer to the upper and lower surfaces of the plant leaves to runoff. The plants were then allowed to dry and were severed at the base of the stem before being placed in cups. Ten second instar individuals of the appropriate insect species, except the tobacco budworm and corn earworm, were placed in each cup and the cup covered. Tests with the tobacco budworm and corn earworm used four replicates with each replicate containing five second instar insects. In all tests, mortality was read 48 hours later. The sigma-cypermethrin used in the foliar evaluations was the product of Example 2.

The test system of the next data set is Lepidoptera. The data set can be described thus: Foliar evaluation, average over Lepidoptera. The class given is in vivo. The conditions noted are these: laboratory. The protocol: as §1, §2
Data set [3] can be described thus: Ninety-six-hour flow-through acute toxicity, rainbow trout. The class given is in vivo, Oncorhynchus mykiss. The settings on record: 96 h flow-through, well water. How it is done: (§3) Ninety-six-hour flow-through acute toxicity studies of both cypermethrin and sigma-cypermethrin were conducted in the rainbow trout (Oncorhynchus mykiss) and in the sheepshead minnow (Cyprinodon variagatus) to determine the median-lethal-concentration (LC50) resulting from continuous exposure. For the rainbow trout the exposure medium was well water; for the sheepshead minnow, filtered seawater. Each group of 20 fish (10 per replicate aquarium) was exposed either to one of five concentrations of pyrethroid delivered in a diluter system in dimethylformamide (DMF), to 30 μL/L DMF in the exposure medium (solvent control), or to the exposure medium alone (control). Observations for mortality, morbidity, and other overt signs of toxicity were determined at prescribed intervals. Concentrations of the test materials were measured at the beginning and end of the exposure using a validated HPLC method. The cypermethrin isomer content (weight %) of the sigma-cypermethrin technical product used in this study was total isomers--88.2%, S-isomers--82%, cis/trans ratio--53/47.

In data set [4] the test system is rainbow trout (Oncorhynchus mykiss). The data set is described as above. Type of data set: in vivo. The protocol:
as §3

For a further data set, the system named is rats. The experiment in a line: 90-day feeding study. The conditions noted are these: for no observable effect level (NOEL): in diet, at least ninety days. Type of data set: in vivo. How it is done: In the 90-day feeding study, conducted in compliance with EPA guideline 82-1, the compound under test was administered continuously in the diet to groups of rats for at least ninety days at concentrations of 0, 150, and 1500 ppm to groups of fifteen Sprague-Dawley rats for cypermethrin and 0, 10, 50, 150, 250, 500, and 900 ppm to groups of ten Fisher 344 rats for sigma-cypermethrin. (The rates for sigma-cypermethrin were lower, because it was expected to be more toxic than cypermethrin.) The cypermethrin isomer content (weight %) of the sigma-cypermethrin technical product used in this study was total isomers--88.2%, S-isomers--82%, cis/trans ratio--53/47. Individual body weight and food consumption values were recorded weekly. At termination, hematology and clinical chemistry determinations were conducted and organ weights were obtained for adrenals, brain, heart, kidneys, liver, and ovaries or testes. Histopathological examination of approximately 40 tissues was conducted on all animals in the control group and in the highest dose group in the cypermethrin study and in the highest two groups (500 and 900 ppm) in the sigma-cypermethrin study. In addition, histopathological examination was performed on the lungs, liver, and kidneys of animals in the mid-dose groups of both studies ([…] and 10, 50, 150, and 250 ppm for sigma-cypermethrin). An ophthalmic examination was conducted on all animals prior to initiation of treatment and prior to final sacrifice.

A short description of another data set: Teratology. The class given is in vivo, Sprague-Dawley rat. The settings on record: rat, po; gavage in corn oil, once daily, gestation days 6 through 15; read-out: NOEL. How it is done: These tests were conducted in compliance with EPA guideline 83-3 for the purpose of determining the effects of the test materials on pregnancy and in utero development. The test materials were administered via gavage in corn oil once daily to female Sprague-Dawley rats on days 6 through 15 of presumed gestation. There were 25 animals per dose group. Dosages of 0, 17.5, 37.5, and 75 mg/kg for cypermethrin and 0, 5, 12.5, 25, and 35 mg/kg for sigma-cypermethrin were administered. The cypermethrin isomer content (weight %) of the sigma-cypermethrin technical product used in this study was total isomers--89.1%, S-isomers--82%, cis/trans ratio--51/49. The control animals (0 mg/kg) received corn oil during the treatment period. All dosages were adjusted daily on the basis of body weights.
Daily observations of the rats were made during the dosage and postdosage periods. On gestation day 20 to 21 the rats were sacrificed for examination of their uterine contents, including the number of live and dead fetuses and the number of resorptions. Fetuses were subsequently examined for malformations.

The test system of data set [5] is corn earworm (Heliothis zea). The experiment in a line: Foliar evaluation, corn earworm (CEW). The class given is in vivo. The conditions noted are these: for LC50: Helicoverpa zea, foliar, pinto beans, mortality at 48 hours. How it is done: as §1, §2
A further data set has as its system certain insect species. The data set can be described thus: Insecticidal activity, overall statement. The class given is in vivo. The protocol: as §1, §2
Data set [6] deals with cabbage looper (Trichoplusia ni). The data set can be described thus: Foliar evaluation, cabbage looper (CL). Type of data set: in vivo. The settings on record: for LC50: Trichoplusia ni, foliar, pinto beans, mortality at 48 hours. How it is done:
as §1, §2

The test system of data set [7] is Mexican bean beetle (Epilachna varivestis). The experiment in a line: Foliar evaluation, Mexican bean beetle (MBB). The class given is in vivo. The settings on record: for LC50: Epilachna varivestis, foliar, pinto beans, mortality at 48 hours. The protocol:
as §1, §2

For data set [8], the system named is sheepshead minnow (Cyprinodon variagatus). The experiment in a line: Ninety-six-hour flow-through acute toxicity, sheepshead minnow. The class given is in vivo. The protocol:
as §3

One may read the LC50 as the concentration lethal to half of the exposed cells or organisms.

Values after ≈ are worked out from the molar mass of the structure shown.

Regarding `CC1(C)C(C=C(Cl)Cl)C1C(=O)O[C@H](C#N)c1cccc(Oc2ccccc2)c1` (mixture of isomers) [sigma-cypermethrin, (S)(cyano)(3-phenoxyphenyl)methyl cis/trans-3-(2,2-dichloroethenyl)-2,2-dimethylcyclopropanecarboxylate], in data set [1], the “toxicity relative to cypermethrin” value was “significantly less toxic to mammals and certain species of fish”. The LC50 turned out to be 4.4 µg/mL in data set [2], 3.9 µg/mL in data set [5], 1.4 µg/mL in [6] and 0.3 µg/mL in data set [7]. In addition, the “Relative Potency” value was found to be 1.7 in data set [2] (vs cypermethrin, TBW); 1.9 in data set [5] (vs cypermethrin, CEW); 1.6 in data set [6] (vs cypermethrin, CL); 4.0 in data set [7] (vs cypermethrin, MBB). The “average effectiveness relative to cypermethrin” value in the data set with Lepidoptera turned out to be 1.9 times. Also, the LC50 at 96 h in data set [3] came out at 0.00069 µg/mL. In addition, the results for the “ratio of the cypermethrin LC50 to the sigma-cypermethrin LC50” value in [4] and in data set [8] were 1.3 and 1.64, respectively. In addition, the “amount required to show an effect on rats relative to that expected from effect on insects” value with rats (90-day feeding) is on record as “more than three times”. The “NOEL relative to the cypermethrin value” in the data set on rats (90-day feeding, rats) is “more than one and a half times the cypermethrin value”. Moreover, the “no observable effect level (NOEL)” value in the data set with rats is listed as 250 ppm. Further, the NOAEL in “Teratology” was 12.5 mg/kg. For the same compound, the “effectiveness relative to cypermethrin” value in the data set with certain insect species is “twice as effective as cypermethrin”; in data set [7] (the only Coleoptera tested, laboratory), “four times as effective”.

Take `CC1(C)C(C=C(Cl)Cl)C1C(=O)OC(C#N)c1cccc(Oc2ccccc2)c1` (centres unmarked) [cypermethrin, (cyano)(3-phenoxyphenyl)methyl 3-(2,2-dichloroethenyl)-2,2-dimethylcyclopropanecarboxylate, reference compound]: the LC50 in data set [2] was found to be 7.3 µg/mL (≈ 17.5 µM); in data set [5] it was 7.3 µg/mL (≈ 17.5 µM); in data set [6], 2.3 µg/mL (≈ 5.52 µM); in [7], 1.2 µg/mL (≈ 2.88 µM). The compound also returned an LC50 at 96 h in [3] of 0.000897 µg/mL (≈ 0.00215 µM). In addition, the “no observable effect level (NOEL)” value in the data set with rats is listed as 150 ppm. The NOAEL in the data set “Teratology” was found to be 17.5 mg/kg.
